{"source": "patent US8039487B2", "about": "“Piperidine-amide derivatives” (Hoffmann-La Roche Inc., priority 2007, dated 2011)", "note": "pIC50: −log10 of the molar value."}
{"biological_target": "T1, liver carnitine palmitoyl transferase 1 (L-CPT1) (Homo sapiens, UniProt P50416)", "T1 construct": "made in house; host or cells: Pichia pastoris strain X-33 (crude cell-free extract)", "T1 sequence (P50416 1-773)": "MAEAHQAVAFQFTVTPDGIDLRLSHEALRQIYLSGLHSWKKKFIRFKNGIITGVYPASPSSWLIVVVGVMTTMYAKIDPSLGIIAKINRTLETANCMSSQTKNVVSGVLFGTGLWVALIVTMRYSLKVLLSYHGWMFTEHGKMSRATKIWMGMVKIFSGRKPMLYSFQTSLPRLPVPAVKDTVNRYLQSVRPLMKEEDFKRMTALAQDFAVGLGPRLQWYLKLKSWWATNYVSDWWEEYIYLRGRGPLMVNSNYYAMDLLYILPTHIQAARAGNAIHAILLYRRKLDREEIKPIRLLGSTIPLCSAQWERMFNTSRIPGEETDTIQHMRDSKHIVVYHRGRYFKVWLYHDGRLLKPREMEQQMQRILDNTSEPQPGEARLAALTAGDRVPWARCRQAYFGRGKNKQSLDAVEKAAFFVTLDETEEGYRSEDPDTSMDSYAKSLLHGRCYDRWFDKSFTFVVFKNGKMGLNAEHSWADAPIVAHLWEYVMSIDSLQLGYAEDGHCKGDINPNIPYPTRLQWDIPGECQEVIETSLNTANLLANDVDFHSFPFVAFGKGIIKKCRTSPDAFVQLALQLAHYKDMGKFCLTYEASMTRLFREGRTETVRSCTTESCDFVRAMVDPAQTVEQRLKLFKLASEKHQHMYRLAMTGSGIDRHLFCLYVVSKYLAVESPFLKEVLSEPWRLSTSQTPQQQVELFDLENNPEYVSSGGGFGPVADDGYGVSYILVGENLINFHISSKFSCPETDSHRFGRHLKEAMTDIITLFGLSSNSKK", "assay": "L-CPT1 inhibition, spectrophotometric CPT activity assay with DTNB (Ellman's reagent)", "type": "biochemical", "details": "human liver CPT1 expressed in P. pastoris, cell extracts; carnitine 500 μM, palmitoyl-CoA 80 μM, DTNB 300 μM, pH 7.4", "procedure": "The following tests were carried out in order to determine the activity of the compounds of the present invention. Background information on the performed assays can be found in: Jackson et al., 1999, Biochem. J. 341, 483-489 and Jackson et al., 2000, J. Biol. Chem. 275, 19560-19566.\nHuman liver and muscle CPT1 cDNAs and rat CPT2 cDNA were subcloned in pGAPZB or pGAPZA, respectively. These plasmids were used to transform P. pastoris strain X-33 via electroporation after the preparation of electrocompetent cells. High copy number clones were selected where necessary using 0.5 or 1 mg/ml Zeocin. Cultures for activity measurements were induced for 16 h in YPD medium (1% yeast extract, 2% peptone, 2% glucose). Crude cell extracts were prepared by disrupting the cells with glass beads or French Press, depending on fermenter sizes. After centrifugation, the cell-free extracts were resuspended in cell breaking buffer (50 mM Tris, pH7.4, 100 mM KCl, 1 mM EDTA) in the presence of a protease inhibitor cocktail, before aliquoting and freezing at −20° C.\nCPT activity was measured using a spectrophotometric assay using 5,5′-dithio-bis-(2-nitrobenzoic acid) (DTNB) also called Ellman's reagent. The HS-CoA released on the formation of acylcarnitine from carnitine (500 μM) and palmitoyl-CoA (80 μM) reduced DTNB (300 μM) forming 5-mercapto-(2-nitrobenzoic acid) which absorbed at 410 nm with a molar extinction coefficient of 13600 M^−1cm^−1. The assay buffer contained 120 mM KCl, 25 mM Tris, pH 7.4, 1 mM EDTA. This assay was used for the identification of selective inhibitors of the liver CPT1 isoform versus the muscle CPT1 and CPT2 isoforms."}
{"smiles": "O=C(COc1ccccc1)N1CCCC[C@@H]1c1csc(-c2ccc(F)cc2)n1", "note": "[Example 35, 1-{(R)-2-[2-(4-Fluoro-phenyl)-thiazol-4-yl]-piperidin-1-yl}-2-phenoxy-ethanone]", "pIC50": 6.81}
{"smiles": "COc1ccc(Cl)cc1-c1csc([C@H]2CCCCN2C(=O)COc2ccccc2)n1", "note": "[Example 9, 1-{(R)-2-[4-(5-Chloro-2-methoxy-phenyl)-thiazol-2-yl]-piperidin-1-yl}-2-phenoxy-ethanone]", "pIC50": 6.61}
{"smiles": "O=C(O)c1ccc(-c2csc([C@H]3CCCCN3C(=O)COc3ccccc3)n2)cc1", "note": "[Example 3, 4-{2-[(R)-1-(2-Phenoxy-acetyl)-piperidin-2-yl]-thiazol-4-yl}-benzoic acid]", "pIC50": 6.89}
{"smiles": "O=C(COc1ccccc1)N1CCCC[C@@H]1c1nc(-c2ccccn2)cs1", "note": "[Example 6, 2-Phenoxy-1-[(R)-2-(4-pyridin-2-yl-thiazol-2-yl)-piperidin-1-yl]-ethanone]", "pIC50": 7.71}
{"smiles": "COC(=O)c1cccc(-c2csc([C@H]3CCCCN3C(=O)COc3ccccc3)n2)n1", "note": "[Example 13, 6-{2-[(R)-1-(2-Phenoxy-acetyl)-piperidin-2-yl]-thiazol-4-yl}-pyridine-2-carboxylic acid methyl ester]", "pIC50": 7.37}
{"smiles": "O=C(COc1ccccc1)N1CCCC[C@@H]1c1nc(-c2cccnc2)cs1", "note": "[Example 8, 2-Phenoxy-1-[(R)-2-(4-pyridin-3-yl-thiazol-2-yl)-piperidin-1-yl]-ethanone]", "pIC50": 7.60}
{"smiles": "O=C(COc1ccccc1)N1CCCC[C@@H]1c1csc(-c2ccc(C(F)(F)F)nc2)n1", "note": "[Example 27, 2-Phenoxy-1-{(R)-2-[2-(6-trifluoromethyl-pyridin-3-yl)-thiazol-4-yl]-piperidin-1-yl}-ethanone]", "pIC50": 6.51}
{"smiles": "Cc1c(-c2csc([C@H]3CCCCN3C(=O)COc3ccccc3)n2)[nH]c2ccccc12", "note": "[Example 19, 1-{(R)-2-[4-(3-Methyl-1H-indol-2-yl)-thiazol-2-yl]-piperidin-1-yl}-2-phenoxy-ethanone]", "pIC50": 6.48}
{"smiles": "O=C(COc1ccccc1)N1CCCC[C@@H]1c1nc(-c2ccncc2)cs1", "note": "[Example 10, 2-Phenoxy-1-[(R)-2-(4-pyridin-4-yl-thiazol-2-yl)-piperidin-1-yl]-ethanone]", "pIC50": 7.17}
{"smiles": "O=C(COc1ccccc1)N1CCCC[C@@H]1c1nc(-c2ccc(Br)s2)cs1", "note": "[Example 23, 1-{(R)-2-[4-(5-Bromo-thiophen-2-yl)-thiazol-2-yl]-piperidin-1-yl}-2-phenoxy-ethanone]", "pIC50": 7.05}
{"smiles": "O=C(COc1ccccc1)N1CCCC[C@@H]1c1nc(-c2ccc3c(c2)OCO3)cs1", "note": "[Example 17, 1-[(R)-2-(4-Benzo[1,3]dioxol-5-yl-thiazol-2-yl)-piperidin-1-yl]-2-phenoxy-ethanone]", "pIC50": 6.87}
{"smiles": "O=C(COc1ccccc1)N1CCCC[C@@H]1c1nc(-c2ccc(Cl)cc2)cs1", "note": "[Example 1, 1-{(R)-2-[4-(4-Chloro-phenyl)-thiazol-2-yl]-piperidin-1-yl}-2-phenoxy-ethanone]", "pIC50": 5.85}
{"smiles": "N#Cc1ccc(-c2csc([C@H]3CCCCN3C(=O)COc3ccccc3)n2)cc1", "note": "[Example 20, 4-{2-[(R)-1-(2-Phenoxy-acetyl)-piperidin-2-yl]-thiazol-4-yl}-benzonitrile]", "pIC50": 7.39}
{"smiles": "O=C(O)c1cccc(-c2csc([C@H]3CCCCN3C(=O)COc3ccccc3)n2)c1", "note": "[Example 5, 3-{2-[(R)-1-(2-Phenoxy-acetyl)-piperidin-2-yl]-thiazol-4-yl}-benzoic acid]", "pIC50": 7.47}
{"smiles": "O=C(COc1ccccc1)N1CCCC[C@@H]1c1nc(-c2ccc(F)c(F)c2)cs1", "note": "[Example 7, 1-{(R)-2-[4-(3,4-Difluoro-phenyl)-thiazol-2-yl]-piperidin-1-yl}-2-phenoxy-ethanone]", "pIC50": 6.54}
{"smiles": "O=C(COc1ccccc1)N1CCCC[C@@H]1c1csc(-c2ccccn2)n1", "note": "[Example 34, 2-Phenoxy-1-[(R)-2-(2-pyridin-2-yl-thiazol-4-yl)-piperidin-1-yl]-ethanone]", "pIC50": 6.76}
{"smiles": "O=C(O)c1cccc(-c2csc([C@H]3CCCCN3C(=O)COc3ccccc3)n2)c1", "note": "[Example 44, Sodium; 3-{2-[(R)-1-(2-phenoxy-acetyl)-piperidin-2-yl]-thiazol-4-yl}-benzoate]", "pIC50": 7.62}
{"smiles": "O=C(COc1ccccc1)N1CCCC[C@@H]1c1csc(-c2cccnc2)n1", "note": "[Example 31, 2-Phenoxy-1-[(R)-2-(2-pyridin-3-yl-thiazol-4-yl)-piperidin-1-yl]-ethanone]", "pIC50": 7.25}
{"smiles": "COc1ccc(-c2nc([C@H]3CCCCN3C(=O)COc3ccccc3)cs2)cn1", "note": "[Example 33, 1-{(R)-2-[2-(6-Methoxy-pyridin-3-yl)-thiazol-4-yl]-piperidin-1-yl}-2-phenoxy-ethanone]", "pIC50": 7.10}
{"smiles": "COc1ccccc1-c1csc([C@H]2CCCCN2C(=O)COc2ccccc2)n1", "note": "[Example 11, 1-{(R)-2-[4-(2-Methoxy-phenyl)-thiazol-2-yl]-piperidin-1-yl}-2-phenoxy-ethanone]", "pIC50": 6.56}
{"smiles": "CS(=O)(=O)c1ccc(-c2csc([C@H]3CCCCN3C(=O)COc3ccccc3)n2)cc1", "note": "[Example 12, 1-{(R)-2-[4-(4-Methanesulfonyl-phenyl)-thiazol-2-yl]-piperidin-1-yl}-2-phenoxy-ethanone]", "pIC50": 6.85}
{"smiles": "O=C(COc1ccccc1)N1CCCC[C@@H]1c1csc(-c2ccncc2)n1", "note": "[Example 32, 2-Phenoxy-1-[(R)-2-(2-pyridin-4-yl-thiazol-4-yl)-piperidin-1-yl]-ethanone]", "pIC50": 6.82}
{"smiles": "Cc1ccc(-c2nc([C@H]3CCCCN3C(=O)COc3ccccc3)cs2)cn1", "note": "[Example 30, 1-{(R)-2-[2-(6-Methyl-pyridin-3-yl)-thiazol-4-yl]-piperidin-1-yl}-2-phenoxy-ethanone]", "pIC50": 7.05}
{"smiles": "O=C(COc1ccccc1)N1CCCC[C@@H]1c1csc(-c2ccc(C(F)(F)F)cn2)n1", "note": "[Example 28, 2-Phenoxy-1-{(R)-2-[2-(5-trifluoromethyl-pyridin-2-yl)-thiazol-4-yl]-piperidin-1-yl}-ethanone]", "pIC50": 6.03}
{"smiles": "O=C(COc1ccccc1)N1CCCC[C@@H]1c1csc(-c2cnccn2)n1", "note": "[Example 29, 2-Phenoxy-1-[(R)-2-(2-pyrazin-2-yl-thiazol-4-yl)-piperidin-1-yl]-ethanone]", "pIC50": 6.65}
{"smiles": "O=C(COc1ccccc1)N1CCCC[C@@H]1c1nc(-c2ccc(O)cc2)cs1", "note": "[Example 16, 1-{(R)-2-[4-(4-Hydroxy-phenyl)-thiazol-2-yl]-piperidin-1-yl}-2-phenoxy-ethanone]", "pIC50": 7.10}
{"smiles": "CC(=O)Nc1ccc(-c2csc([C@H]3CCCCN3C(=O)COc3ccccc3)n2)cc1", "note": "[Example 15, N-(4-{2-[(R)-1-(2-Phenoxy-acetyl)-piperidin-2-yl]-thiazol-4-yl}-phenyl)-acetamide]", "pIC50": 7.49}
{"smiles": "O=C(COc1ccccc1)N1CCCC[C@@H]1c1csc(Cc2ccc(Cl)cc2)n1", "note": "[Example 37, 1-{(R)-2-[2-(4-Chloro-benzyl)-thiazol-4-yl]-piperidin-1-yl}-2-phenoxy-ethanone]", "pIC50": 6.14}
{"smiles": "O=C(COc1ccccc1)N1CCCC[C@@H]1c1nc(-c2ccc(OC(F)(F)F)cc2)cs1", "note": "[Example 4, 2-Phenoxy-1-{(R)-2-[4-(4-trifluoromethoxy-phenyl)-thiazol-2-yl]-piperidin-1-yl}-ethanone]", "pIC50": 6.10}
{"smiles": "O=C(COc1ccccc1)N1CCCC[C@@H]1c1csc(C2COc3ccccc3O2)n1", "note": "(stereo partly drawn) [Example 38, 1-{(R)-2-[2-(2,3-Dihydro-benzo[1,4]dioxin-2-yl)-thiazol-4-yl]-piperidin-1-yl}-2-phenoxy-ethanone]", "pIC50": 6.40}
{"smiles": "CC(=O)Nc1ccc(-c2nc([C@H]3CCCCN3C(=O)COc3ccccc3)cs2)cc1", "note": "[Example 25, N-(4-{4-[(R)-1-(2-Phenoxy-acetyl)-piperidin-2-yl]-thiazol-2-yl}-phenyl)-acetamide]", "pIC50": 6.78}
{"smiles": "O=C(O)c1cccc(-c2nc([C@H]3CCCCN3C(=O)COc3ccccc3)cs2)c1", "note": "[Example 40, 3-{4-[(R)-1-(2-Phenoxy-acetyl)-piperidin-2-yl]-thiazol-2-yl}-benzoic acid]", "pIC50": 7.10}
